Experimental data as given in ChEMBL document CHEMBL1150067, “Anti-tumor-promoting activities of afromosin and soyasaponin I isolated from Wistaria brachybotrys” (1992).

Assays:
Format in all cases: functional
Mus musculus [1] = assay: Inhibition of DMBA-induced/TPA-promoted carcinogenesis in mouse assessed as number of skin papillomas per mouse at 85 nmol administered twice weekly after 1 week of initiation measured after 20 weeks by two stage carcinogenesis test; parameters: scale not given: the % may be the effect or the level left
Mus musculus [2] = species: Mus musculus; assay: Inhibition of 4NQO-induced carcinogenesis in mouse assessed as total number of tumors at 1.25 mg after 25 weeks by two stage carcinogenesis test
Mus musculus [3] = species: Mus musculus; assay: Inhibition of 4NQO-induced carcinogenesis in mouse assessed as number of tumors per mouse at 1.25 mg after 25 weeks by two stage carcinogenesis test
Mus musculus [4] = species: Mus musculus; assay: Inhibition of 4NQO-induced carcinogenesis in mouse assessed as reduction of mouse with tumor at 1.25 mg after 25 weeks by two stage carcinogenesis test; parameters: scale not given: the % may be the effect or the level left

COc1ccc(-c2coc3cc(O)c(OC)cc3c2=O)cc1 [CASTANIN]
Activity (Mus musculus [1]): 40%
Activity (Mus musculus [2]): 14
Activity (Mus musculus [3]): 0.93
Activity (Mus musculus [4]): 60%

C[C@@H]1O[C@@H](O[C@H]2[C@H](O[C@H]3[C@H](O[C@H]4CC[C@@]5(C)[C@@H](CC[C@]6(C)[C@@H]5CC=C5[C@@H]7CC(C)(C)C[C@@H](O)[C@]7(C)CC[C@]56C)[C@@]4(C)CO)O[C@H](C(=O)O)[C@@H](O)[C@@H]3O)O[C@H](CO)[C@H](O)[C@@H]2O)[C@H](O)[C@H](O)[C@H]1O [SOYASAPONIN I]
Activity (Mus musculus [1]): 40%
